Laboratory results as given in patent publication US6525091B2, “Substituted diarylureas as stimulators for Fas-mediated apoptosis” (Telik, Inc., priority 2001, dated 2003).

Key:
hepatocytes = test: Fas-dependent apoptosis, FACS analysis of DNA fragmentation (propidium iodide) and annexin V staining; type: cell-based; conditions: at 10 μM
Experimental: Assays for Fas-dependent apoptosis are known in the art. See, for example, Ruiz-Ruiz et al, Cell Death Diff. 271 (1999); and Muller et al., J. Exp. Therap. 188:2033 (1998).
Apoptosis is identified by detection of the DNA fragmentation pattern characteristic of apoptotic cell death. In this Example, apoptosis is detected and measured by FACS® analysis carried out in a FACScan® flow cytometer (Becton Dickinson) using CellQuest software. Quantification of DNA fragmentation is performed by FACS® analysis of propidium iodide-stained nuclei as described in Nicolletti et al., J. Immunol. Methods 139:271-279 (1991). Hepatocytes floating in the culture medium are collected by centrifugation at 200×g. Adherent hepatocytes are harvested-by incubation with 1% trypsin for 1 min. The cells are washed in phosphate-buffered saline (PBS), suspended in hypotonic lysis buffer (0.1% sodium citrate, 0.1% Triton X, and […] propidium iodide) (Sigma) and incubated at 4° C. for 6 hours. Cells are then analyzed for DNA content by flow cytometry.
Early apoptotic changes are identified using annexin V-Fluos (Boehringer Mannheim) which binds to phosphatidylserine molecules (PS) exposed on apoptotic, but not normal, cell membranes (PS is normally restricted to the inner leaflet of the cell membrane bilayer). […] Cells are incubated for 10-15 min and analyzed on a flow cytometer using CellQuest software. […]

synoviocytes = test: Stimulation of Fas-mediated apoptosis with h-HFE7A anti-human Fas antibody, XTT cell viability, stimulation index; type: cell-based; conditions: 10 μM compound with h-HFE7A 1000 ng/mL, synoviocytes from rheumatoid arthritis patients, 16 hours
Source text: Anti-human Fas antibody h-HFE7A, humanized antibody was obtained from Sankyo Co., Ltd. This antibody induces apoptosis when cross-linked with secondary antibody in vitro.
Samples of human synovium were obtained from rheumatoid arthritis patients at the time of total knee replacement surgery or synoviectomy. Synovial tissue was minced into small pieces and was digested with collagenase and cultured in Ham's F12 medium supplemented with 10% fetal bovine serum (F10F) in a humidified 5% CO2 atmosphere at 37° C. Adherent cells were considered as synoviocytes and were cultivated in F10 F.
Cell viability was determined with the XTT method described in Cancer Res. 48:4827 (1988). Ninety-six well flat plates were precoated with anti-human IgG. h-HFE7A (1000 ng/mL) and/or 10 μM of a compound of this invention were added and incubated for 2 hours. Synoviocytes were seeded (10,000/well) and incubated for 16 hours. Background wells received culture medium only. XTT (2,3-Bis[2-methoxy-4-nitro-sulfophenyl]-2H-tetrazolium-5-carboxanilide), final concentration 200 μg/mL, and phenazine methosulfate, final concentration 5 μM, were added to each well, and further incubated for 4 hours. The absorbance at 450 nm was measured and cell viability was determined as follows: [formula]
Enhancement of Fas-mediated apoptosis by compounds of this invention was determined by the stimulation index (SI): [formula] […]

## O=C(Nc1ccc(Br)c([N+](=O)[O-])c1)Nc1ccc(Br)c([N+](=O)[O-])c1 [Compound 3]
hepatocytes
  stimulation of Fas-dependent apoptosis: stimulation of Fas-dependent apoptosis
synoviocytes
  Enhancement of Fas-mediated apoptosis, stimulation index (SI): positive (An SI over 2.0 was considered positive)
